Data published in patent US10624968B2, “Compounds for treating cancer” (Bicycle Therapeutics Limited, priority 2017, dated 2020).
Where two headings read alike, the source gives them in different places. Starred links: 1 amine or outer side, 2 acyl side, 3 side chain; linkers in the order of their positions; H or OH if unused. Positions of bridges follow the written chain, without caps; N, C: chain ends. Non-standard residues stand in square brackets, D forms with d. Residues, ends and D or L forms follow the SMILES beside them. Chains are numbered I, II in the order given. ξ: configuration not given here. *: point of attachment. Dolaproine = CO[C@@H]([C@@H]1CCCN1)[C@@H](C)C(=O)O; Dil = CC[C@H](C)[C@H](NC)[C@@H](CC(=O)O)OC; TBMB = c1c(C[*:1])cc(C[*:3])cc1C[*:2]; X2 = O=C(CCCC(=O)[*:2])NCCC(=O)[*:1]; PABC = O=C(OCc1ccc(N[*:1])cc1)[*:2]; X1 = C[C@@H](N*)[C@@H](O)c1ccccc1; ξ1Nal = NC(Cc1cccc2ccccc12)C(=O)O; Cit = NC(=O)NCCC[C@H](N)C(=O)O; NMeV = CN[C@H](C(=O)O)C(C)C; ξY = NC(Cc1ccc(O)cc1)C(=O)O; ξTle = CC(C)(C)C(N)C(=O)O; ξF = NC(Cc1ccccc1)C(=O)O; ξE = NC(CCC(=O)O)C(=O)O; ξD = NC(CC(=O)O)C(=O)O; ξN = NC(=O)CC(N)C(=O)O; ξC = NC(CS)C(=O)O; ξA = CC(N)C(=O)O; Sar = CNCC(=O)O

Assays:
[1] = Tolerability (body weight) in LU-01-0486 NSCLC PDX model; assay type: in vivo, mouse
Procedure: All the procedures related to animal handling, care and the treatment in the study were performed following the guidance of the Association for Assessment and Accreditation of Laboratory Animal Care (AAALAC). At the time of routine monitoring, the animals were daily checked for any effects of tumor growth and treatments on normal behavior such as mobility, food and water consumption (by looking only), body weight gain/loss (body weights were measured twice weekly), eye/hair matting and any other abnormal effect as stated in the protocol. Death and observed clinical signs were recorded on the basis of the numbers of animals within each subset.

[2] = tested on: HT1080 cells; test: Cytotoxicity in HT1080 cells in presence and absence of 1 mM bacitracin (ATPlite, 24 hour exposure)
Procedure: HT1080 cells (ATCC, via LGC, BIC918) Maintained in EMEM media (Sigma M2279)+10% FBS (Sigma Code F7524)+4 mM L-Glu (Invitrogen Cat 25030-024)
I-1a and Toxins with Bacitracin—24 or 72 Hour Exposure in 96 Well Plates
DB seeded cells in normal media, 75 μL in 96 well clear plates, ˜24 hours previous.
HT1080—7.5 k cells/well: 50% confluent upon dosing.
Dilute in media 1:42.85=5 μL DMSO dilute+209 μL media=>use 15 μL per well
This gives a 5 μM top concentration for BDCs in assay
Add 10 µL of media±bacitracin (2 plates of each)−leave for 1 hr
(§1) Bacitracin=1 mM final concentration. This requires a 10 mM concentration with no DMSO.
Add 15 μL treatment per well as in Table 19, below.
Seal plates with gas permeable membrane and incubate at 37° C.
Washout HT1080 plates with 2×150 μL PBS at 24 h and add 100 μL fresh media
At t=72 h, equilibrate ATPlite reagent to room temperature. Add 10 ml buffer to each vial of lyophilized substrate. Add 100 μL reagent per well. Seal with PCR seal and cover to protect from light. Shake for 20 mins before reading luminescence

[3] = tested on: L540 cells; test: Cytotoxicity in L540 cells in presence and absence of 1 mM bacitracin (ATPlite, 72 hour exposure); assay type: cell-based
Procedure: L540 cells (DSMZ # ACC72, BIC5121), maintained in RPMI-1640 medium (Sigma # R8758)+20% heat-inactivated serum
L540—20 k cells/well: 40% confluent upon dosing.
as §1
Add 100 μL reagent per well. […] Shake for 20 mins before reading luminescence

[4] = Plasma stability (LC-MS/MS assay), human plasma; assay type: in vitro ADME; conditions: pH 7.4 at 37° C.
Procedure: I-1a plasma stability studies were conducted in human and mouse plasma.
In vitro plasma stability assay measures the extent of degradation of compounds in plasma.
Peptides or BDCs are incubated at 37° C. in plasma (mouse or human) at low micromolar concentrations for several hours. The stability is quantitatively measured by LC-MS/MS.
Add 8 μL of the 160 μM DMSO stock of peptide or BDC and add 8 μL of 160 μM DMSO stock of 06-34-18-N182 as internal standard to 304 μL of plasma (152 μL*2) for a final concentration of 4 μM (5% DMSO).
Incubate at 37° C. in 100% humidity.
Pipette out 40 μL for 7 timepoints: time 0, 1 h, 2 h, 4 h, 6 h, 8 h, 24 h into a 1.5 mL Eppendorf. Store at −80° C. immediately. (total volume of samples?×40=280 μL).
Add to the sample the extraction solvent. The extraction solvent contains 1 part of water, 3 parts of methanol, and 3 parts of acetonitrile.
To the time course samples add 120 μL of extraction solvent, mix thoroughly with pipette and gently vortex.
Centrifuge for 40 minutes at 14000 rpm at 4° C. […]
It is recommend to follow one transition for the peptide of BDCs to study, and one transition for the internal standard 06-34-18-N182 at the same time. The most relevant Selected Ion Reaction (SIR) and Multiple Reaction Monitoring (MRM) transitions were determined for each peptide or BDC. […]

SMILES: CC[C@H](C)[C@@H]([C@@H](CC(=O)N1CCC[C@H]1[C@H](OC)[C@@H](C)C(=O)N[C@H](C)[C@@H](O)c1ccccc1)OC)N(C)C(=O)[C@@H](NC(=O)[C@H](C(C)C)N(C)C(=O)OCc1ccc(NC(=O)[C@H](CCCNC(N)=O)NC(=O)[C@@H](NC(=O)CCCC(=O)NCCC(=O)N(C)CC(=O)N(C)CC(=O)N(C)CC(=O)N(C)CC(=O)N(C)CC(=O)N(C)CC(=O)N(C)CC(=O)N(C)CC(=O)N(C)CC(=O)N(C)CC(=O)NC(C)C(=O)NC2CSCc3cc4cc(c3)CSCC(NC(=O)C(C)NC(=O)C(Cc3cccc5ccccc35)NC(=O)C(CCC(=O)O)NC(=O)C(CC(N)=O)NC(=O)C(C)NC2=O)C(=O)NC(CCC(=O)O)C(=O)NC(CC(=O)O)C(=O)NC(Cc2ccccc2)C(=O)NC(Cc2ccc(O)cc2)C(=O)NC(CC(=O)O)C(=O)NC(C(C)(C)C)C(=O)NC(C(N)=O)CSC4)C(C)C)cc1)C(C)C (stereo partly drawn) [Compound I-1a] (I: [Sar][Sar][Sar][Sar][Sar][Sar][Sar][Sar][Sar][Sar][ξA][ξC][ξA][ξN][ξE][ξ1Nal][ξA][ξC][ξE][ξD][ξF][ξY][ξD][ξTle][ξC]-NH2 / II: V[Cit][PABC][NMeV]V[Dil][Dolaproine]-X1; linker I:12-I:18-I:25 via TBMB; linker I:N-II:N via X2)
- effect on body weight (in words) ([1]; 1 mg/kg): no significant effect on body weight
- effect on body weight (in words) ([1]; 3 mg/kg): without significant effect on body weight
- IC50 ([2]; read-out: IC50 with 1 mM bacitracin, 24 hour exposure, + 1 mM bacitracin (PDI inhibitor)): 7.3 nM
- IC50 ([2]; read-out: Standard IC50, 24 hour exposure (high MT1 expression), no block): 5.3 nM
- IC50 ([3]; 72 hour exposure (low/no MT1 expression), no block, read-out: Standard IC50): 1090 nM
- Fold shift with bacitracin ([3]; 72 hour exposure, 1 mM bacitracin vs none): 2.3
- IC50 ([3]; read-out: IC50 with 1 mM bacitracin, 72 hour exposure, + 1 mM bacitracin): 2550 nM
- half-life at 1 μM [4]: > 24 h
- remaining at 24 h, 1 μM ([4]; read-out: % remained after 24 hours incubation): 96%
